# Assay results as given in patent US9573913B2, “Cathepsin cysteine protease inhibitors” (Merck Sharp & Dohme Corp., priority 2013, dated 2017).
# Tests used:
# human cathepsin K = human cathepsin K (UniProt P43236); test: Cathepsin K Assay (hrbCat K); assay type: biochemical; conditions: Z-Leu-Arg-AMC substrate, pH 5.5, 15 min preincubation; read-out: hrbCat K (IP (nM))
# Summary of the method: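 Human cathepsin K (0.4 nM) was preincubated 15 min at room temperature with compound in 50 mM MES pH 5.5, 2.5 mM EDTA, 2.5 mM DTT and 10% DMSO. Inhibition was fitted to a dose-response model.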
# human cathepsin F = target: T1, human cathepsin F (Homo sapiens, UniProt Q9UBX1); test: Cathepsin F assay (hCat F); assay type: biochemical; conditions: Z-Phe-Arg-AMC substrate, pH 5.5, 15 min preincubation; read-out: hCat F (IP (nM))
# T1 sequence (Q9UBX1 271-484): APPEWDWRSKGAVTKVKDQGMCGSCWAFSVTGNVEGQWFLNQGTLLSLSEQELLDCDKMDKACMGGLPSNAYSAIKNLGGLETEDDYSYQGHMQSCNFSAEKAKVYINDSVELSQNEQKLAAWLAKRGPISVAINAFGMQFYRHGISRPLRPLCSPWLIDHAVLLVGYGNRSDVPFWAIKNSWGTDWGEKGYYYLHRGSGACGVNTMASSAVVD
# Summary of the method: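 AMC release from Z-Phe-Arg-AMC, added at 8 μM, was monitored fluorometrically (360/460 nm) for 20 min after 10 nM enzyme and compound had been preincubated 15 min at room temperature. Buffer: MES 50 mM pH 5.5, EDTA and DTT 2.5 mM each, 10% DMSO. Compound DMSO dilutions spanned 500–0.025 μM (3-fold). Dose-response fitting gave % inhibition.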
SMILES,IC50 (human cathepsin K),IC50 (human cathepsin F)
"N#Cc1cc(Cl)ccc1-c1nc([C@@H]2CCCC[C@H]2C(=O)NC2(C#N)CC2)c(-c2ccc(N3CCS(=O)(=O)CC3)cc2)s1 [Example 87, (1R,2R)-2-(2-(4-chloro-2-cyanophenyl)-5-(4-(1,1-dioxidothiomorpho-lino)phenyl)thiazol-4-yl)-N-(1-cyanocyclopropyl) cyclohexanecarbox-amide]",6.7 nM,7780 nM
"N#CC1(NC(=O)[C@@H]2CCCC[C@H]2c2nc(-c3cncc(C(F)(F)F)c3)sc2-c2ccc(N3CCS(=O)(=O)CC3)cc2)CC1 [Example 88, (1R,2R)-N-(1-cyanocyclopropyl)-2-(5-(4-(1,1-dioxidothiomorpho-lino)phenyl)-2-(5-(trifluoromethyl)pyridin-3-yl)thiazol-4-yl)cyclohexane-carboxamide]",1.5 nM,1400 nM
"N#CC1(NC(=O)[C@@H]2CCCC[C@H]2c2nc(N3CCCCC3)sc2-c2ccc(N3CCS(=O)(=O)CC3)cc2)CC1 [Example 89, (1R,2R)-N-(1-cyanocyclopropyl)-2-(5-(4-(1,1-dioxidothiomorpho-lino)phenyl)-2-(piperidin-1-yl)thiazol-4-yl)cyclohexane-carboxamide]",3 nM,1000 nM
"N#CC1(NC(=O)[C@@H]2CCCC[C@H]2c2nc(-c3ccc(C(F)(F)F)cn3)sc2-c2ccc(N3CCS(=O)(=O)CC3)cc2)CC1 [Example 90, (1R,2R)-N-(1-cyanocyclopropyl)-2-(5-(4-(1,1-dioxidothiomorpho-lino)phenyl)-2-(5-(trifluoromethyl)pyridin-2-yl)thiazol-4-yl)cyclohexane-carboxamide]",2.2 nM,1280 nM
"Cc1nc(-c2nc([C@@H]3CCCC[C@H]3C(=O)NC3(C#N)CC3)c(-c3ccc(N4CCS(=O)(=O)CC4)cc3)s2)cs1 [Example 91, (1R,2R)-N-(1-cyanocyclopropyl)-2-(5-(4-(1,1-dioxidothiomorpho-lino)phenyl)-2′-methyl-[2,4′-bithiazol]-4-yl)cyclohexane-carboxamide]",3.3 nM,1110 nM
"CC(C)(C)c1ccc(-c2nc([C@@H]3CCCC[C@H]3C(=O)NC3(C#N)CC3)c(-c3ccc(N4CCS(=O)(=O)CC4)cc3)s2)cn1 [Example 92, (1R,2R)-2-(2-(6-(tert-butyl)pyridin-3-yl)-5-(4-(1,1-dioxidothiomorpho-lino)phenyl)thiazol-4-yl)-N-(1-cyanocyclopropyl) cyclohexanecarbox-amide]",3 nM,3330 nM
"CC1(C)CC(c2nc([C@@H]3CCCC[C@H]3C(=O)NC3(C#N)CC3)c(-c3ccc(N4CCS(=O)(=O)CC4)cc3)s2)CC(C)(C)O1 [Example 93, (1R,2R)-N-(1-cyanocyclopropyl)-2-(5-(4-(1,1-dioxidothiomorpho-lino)phenyl)-2-(2,2,6,6-tetramethyltetrahydro-2H-pyran-4-yl)thiazol-4-yl)cyclohexane-carboxamide]",14.1 nM,≥ 10000 nM
"N#CC1(NC(=O)[C@@H]2CCCC[C@H]2c2nc(-c3c(F)cccc3F)sc2-c2ccc(N3CCS(=O)(=O)CC3)cc2)CC1 [Example 94, (1R,2R)-N-(1-cyanocyclopropyl)-2-(2-(2,6-difluorophenyl)-5-(4-(1,1-dioxidothiomorpho-lino)phenyl)thiazol-4-yl)cyclohexane-carboxamide]",5.5 nM,≥ 10000 nM
"Cc1cc(C#N)ccc1-c1nc([C@@H]2CCCC[C@H]2C(=O)NC2(C#N)CC2)c(-c2ccc(N3CCS(=O)(=O)CC3)cc2)s1 [Example 95, (1R,2R)-2-(2-(4-cyano-2-methylphenyl)-5-(4-(1,1-dioxidothiomorpho-lino)phenyl)thiazol-4-yl)-N-(1-cyanocyclopropyl) cyclohexanecarbox-amide]",3.6 nM,1120 nM
"N#CC1(NC(=O)[C@@H]2CCCC[C@H]2c2nc(-c3ccnc(C(F)(F)F)c3)sc2-c2ccc(N3CCS(=O)(=O)CC3)cc2)CC1 [Example 96, (1R,2R)-N-(1-cyanocyclopropyl)-2-(5-(4-(1,1-dioxidothiomorpho-lino)phenyl)-2-(2-(trifluoromethyl)pyridin-4-yl)thiazol-4-yl)cyclohexane-carboxamide]",2.1 nM,1920 nM
"COc1cncc(F)c1-c1nc([C@@H]2CCCC[C@H]2C(=O)NC2(C#N)CC2)c(-c2ccc(N3CCS(=O)(=O)CC3)cc2)s1 [Example 97, (1R,2R)-N-(1-cyanocyclopropyl)-2-(5-(4-(1,1-dioxidothiomorpho-lino)phenyl)-2-(3-fluoro-5-methoxypyridin-4-yl)thiazol-4-yl)cyclohexane-carboxamide]",2.8 nM,3080 nM
"N#CC1(NC(=O)[C@@H]2CCCC[C@H]2c2nc(-c3cnc(C(F)(F)F)nc3)sc2-c2ccc(N3CCS(=O)(=O)CC3)cc2)CC1 [Example 98, (1R,2R)-N-(1-cyanocyclopropyl)-2-(5-(4-(1,1-dioxidothiomorpho-lino)phenyl)-2-(2-(trifluoromethyl)pyrimidin-5-yl)thiazol-4-yl)cyclohexane-carboxamide]",0.6 nM,1600 nM
"N#CC1(NC(=O)[C@@H]2CCCC[C@H]2c2nc(-c3cnc(C4CC4)c(F)c3)sc2-c2ccc(N3CCS(=O)(=O)CC3)cc2)CC1 [Example 99, (1R,2R)-N-(1-cyanocyclopropyl)-2-(2-(6-cyclopropyl-5-fluoropyridin-3-yl)-5-(4-(1,1-dioxidothiomorpho-lino)phenyl)thiazol-4-yl)cyclohexane-carboxamide]",1.7 nM,3330 nM
"CC1(C)CN(c2nc([C@@H]3CCCC[C@H]3C(=O)NC3(C#N)CC3)c(-c3ccc(N4CCS(=O)(=O)CC4)cc3)s2)CC(C)(C)O1 [Example 101, (1R,2R)-N-(1-cyanocyclopropyl)-2-(5-(4-(1,1-dioxidothiomorpho-lino)phenyl)-2-(2,2,6,6-tetramethylmorpho-lino)thiazol-4-yl)cyclohexane-carboxamide]",48.8 nM,≥ 10000 nM
"N#CC1(NC(=O)[C@@H]2CCCC[C@H]2c2nc(N3CCC4(CC3)CC4)sc2-c2ccc(N3CCS(=O)(=O)CC3)cc2)CC1 [Example 102, (1R,2R)-N-(1-cyanocyclopropyl)-2-(5-(4-(1,1-dioxidothiomorpho-lino)phenyl)-2-(6-azaspiro[2.5]octan-6-yl)thiazol-4-yl)cyclohexane-carboxamide]",2.4 nM,1000 nM
"N#CC1(NC(=O)[C@@H]2CCCC[C@H]2c2nc(N3CCOC(c4ccccc4)C3)sc2-c2ccc(N3CCS(=O)(=O)CC3)cc2)CC1 (stereo partly drawn) [Example 103, (1R,2R)-N-(1-cyanocyclopropyl)-2-(5-(4-(1,1-dioxidothiomorpho-lino)phenyl)-2-(2-phenylmorpholino)thiazol-4-yl)cyclohexane-carboxamide]",1.2 nM,1000 nM
"N#CC1(NC(=O)[C@@H]2CCCC[C@H]2c2nc(N3CCCC(F)(F)C3)sc2-c2ccc(N3CCS(=O)(=O)CC3)cc2)CC1 [Example 106, (1R,2R)-N-(1-cyanocyclopropyl)-2-(2-(3,3-difluoropiperidin-1-yl)-5-(4-(1,1-dioxidothiomorpho-lino)phenyl)thiazol-4-yl)cyclohexane-carboxamide]",2.9 nM,≥ 10000 nM
"N#CC1(NC(=O)[C@@H]2CCC(F)(F)C[C@H]2c2nc(-c3ccc(F)cn3)sc2-c2ccc(N3CCS(=O)(=O)CC3)cc2)CC1 [Example 107, (1R,2R)-N-(1-cyanocyclopropyl)-2-(5-(4-(1,1-dioxidothiomorpho-lino)phenyl)-2-(5-fluoropyridin-2-yl)thiazol-4-yl)-4,4-difluorocyclohexane-carboxamide]",3.3 nM,1000 nM
"N#CC1(NC(=O)[C@@H]2CCCC[C@H]2c2nc(-c3cccc(C4CCOCC4)c3)sc2-c2ccc(N3CCS(=O)(=O)CC3)cc2)CC1 [Example 110, (1R,2R)-N-(1-cyanocyclopropyl)-2-(5-(4-(1,1-dioxidothiomorpho-lino)phenyl)-2-(3-(tetrahydro-2H-pyran-4-yl)phenyl)thiazol-4-yl)cyclohexane-carboxamide]",1.7 nM,3330 nM
"COc1ccc(-c2nc([C@@H]3CC[C@H](F)C[C@H]3C(=O)NC3(C#N)CC3)c(-c3ccc(N4CCS(=O)(=O)CC4)cc3)s2)nc1 [Example 114, (1R,2R,5S)-N-(1-cyanocyclopropyl)-2-(5-(4-(1,1-dioxidothiomorpho-lino)phenyl)-2-(5-methoxypyridin-2-yl)thiazol-4-yl)-5-fluorocyclohexane-carboxamide]",1.1 nM,1000 nM
"N#CC1(NC(=O)[C@@H]2CCC(F)(F)C[C@H]2c2nc(-c3cncc(Cl)c3)sc2-c2ccc(N3CCS(=O)(=O)CC3)cc2)CC1 [Example 115, (1R,2R)-2-(2-(5-chloropyridin-3-yl)-5-(4-(1,1-dioxidothiomorpho-lino)phenyl)thiazol-4-yl)-N-(1-cyanocyclopropyl)-4,4-difluorocyclohexane-carboxamide]",2.2 nM,2660 nM
"N#CC1(NC(=O)[C@@H]2C[C@@H](F)CC[C@H]2c2nc(N3CCOCC3)sc2-c2ccc(N3CCS(=O)(=O)CC3)cc2)CC1 [Example 116, (1R,2R,5S)-N-(1-cyanocyclopropyl)-2-(5-(4-(1,1-dioxidothiomorpho-lino)phenyl)-2-morpholinothiazol-4-yl)-5-fluorocyclohexane-carboxamide]",2.4 nM,1000 nM
